How the values were obtained:
[1] = log P by reverse phase HPLC; format: physicochemical; details: RP-HPLC retention time vs toluene and triphenylene; n = 4; read-out: Direct log P
Excerpt: Reverse phase HPLC (RP-HPLC) has been previously used to measure the logarithm of the octanol-water partition coefficient (log P) of many compounds [11]. To obtain the log P values recorded herein, the retention times of the compounds of interest (Table 1) along with the retention times of internal standards (toluene and triphenylene) were utilized. The resulting quantities were then substituted into Equation 1: [drawing 1] (1) where the abbreviation tol refers to toluene, triph to triphenylene, and t to the retention time. Details concerning how this equation was derived have been described by Donovan and Pescatore.
HPLC recordings were achieved using a Hewlett Packard HP/Agilent 1100 HPLC system connected to a 1 cm × 4.6 mm, 5 µm aPHera™ C18 Polymer HPLC column (catalog number 56130AST). Colorimetric assays were performed on a Molecular Devices Vmax microplate reader.

[2] = test system: PMA induced mouse ear edema; assay: phorbol myristate acetate (PMA) induced mouse ear edema assay; format: in vivo; details: topical 50 µg/ear with PMA 2 µg/ear, 3 h 20 min; (1/SA) in milligrams of inhibited edema per mol of drug; n = 10
Experimental: The compounds were then assessed using the standard phorbol myristate acetate (PMA) induced mouse ear edema assay to determine their anti-inflammatory specific activity. In this assay, the specific activity of the drug, SA, is expressed as log(1/SA). For the mouse ear model, the molar concentration of the drug was calculated using Equation 2: SA = (mol of drug) (∆ in edema from control)^−1(2) where the difference in edema from control, ∆, refers to the difference in the average weight of the mouse ear between treated and untreated biopsies. The outcome, (1/SA), is expressed in units of milligrams of inhibited edema per mol of drug. […] Note Table 1.
Male Swiss Webster albino mice were briefly anesthetized with halothane. Compounds were topically applied to the inside pinnae of the ears of the mice in a solution containing the edema-causing irritant PMA. PMA alone (2 µg/ear) or in combination with the test compound (50 µg/ear) were dissolved in acetone and applied to the left ears (5 mice per treatment group, n = 10/compound), and acetone alone was applied to all right ears. After 3 h and 20 min incubation, the mice were euthanized, the ears removed and a 6 mm diameter biopsy was taken from the center of each ear and immediately weighed. Edema was measured by subtracting the weight of the right ear (acetone control) from the weight of the left ear (treated). Compounds that were not soluble in 100% acetone were dissolved in 20% ethanol: 80% acetone v/v. Results were recorded as % decrease (inhibition) in edema relative to the PMA control group edema.

[3] = test system: human neutrophils; parameters: method as in ref [3] = [3]; 3. Luedke E.S. The Identification and Characterization of Pseudopterosins: Anti-Inflammatory Agents Isolated from the Gorgonian Coral Pseudopterogorgia elisabethae Ph.D. Thesis University of Californi; details: in vitro; ref [3]; cited from earlier work
[4] = test system: human adenosine A2B receptor; parameters: method as in doi:10.1016/j.tet.2009.09.021; details: DMSO formulation; high amount of non-specific binding; ref [4]; cited from earlier work
[5] = test system: human adenosine A3 receptor; parameters: method as in doi:10.1016/j.tet.2009.09.021; details: DMSO formulation; high amount of non-specific binding; ref [4]; cited from earlier work
[6] = aqueous solubility; format: physicochemical; details: without DMSO, Cremophor or cyclodextrin
Excerpt: […] Reverse phase HPLC was utilized as described in Section 3.3 above to confirm the quantity of solubilized drug that remained unchanged between formulations.

[7] = test system: human adenosine A1 receptor; parameters: method as in doi:10.1016/j.tet.2009.09.021; details: DMSO formulation; high amount of non-specific binding; ref [4]; cited from earlier work
[8] = test system: HUVEC cells; assay: scratch migration assay; format: cell-based, human; details: 3.9 × 10^−8 M PsA in 0.05% HPβCD, depleted media, over 10 h; n = 16
Experimental: The in vitro scratch assay is commonly used to simulate cellular events that accompany the presence of a wound. Here, a thin scratch made in a cellular monolayer mimics the wound. The migration of cells in response to the scratch is then monitored using microscopic images at various time points to determine the rate of migration.
(§1) For each experiment cells were split at 80% confluence. All experiments were conducted between generations 4 and 10.
HUVEC were harvested from a T-75 plate by trypsinization and resuspended in EGM-2 complete culture media and were plated into T-25 cell culture flasks and allowed to grow to approx 90% confluence. EGM-2 complete culture media was then removed and replaced with starvation media for 8 h. A uniform scratch in the monolayer was then produced using a sterile pipette tip approximately 500 µm in width. Starvation media was replaced with 5 mL of either PsA in drug dosing media, or HPβCD in drug dosing media, or HPβCD in EGM-2 complete culture media. Microscopic images were taken at 400 times magnification every 5 min beginning at t = 0, and continuing until t = 10 h. Images were analyzed by determining the distance between cells on either side of scratch over time. Percent scratch closure was set to be a function of 1 − (average distance at each time point/average width of scratch).

[9] = test system: HUVEC cells; assay: WST-1 cell proliferation assay; format: cell-based, human
Experimental: Figure 4 PsA Potently Activates HUVEC Proliferation. […] Note saturation kinetics. Cytotoxicity is illustrated as a vertical dashed line at 1.5 × 10^−5 M in all vehicles tested. The percentage increase was calculated as [100 × (T/C)] where T/C is defined as […]. Data are presented as mean ± SEM (n = 16).
as §1
HUVEC were harvested from a T-75 plate by trypsinization and resuspended in EGM-2 complete culture media. Cells were plated at 500 cells per well of a 96-well plate and incubated overnight at 37 °C in a 5% CO2 atmosphere. EGM-2 complete culture media was removed and replaced with starvation media for 8 h. During this time, drug dilutions were prepared in growth factor depleted media. Starvation media was replaced with drug dilution in growth factor depleted media and incubated at 37 °C in a 5% CO2 atmosphere. After 41 h, 10 µL of WST-1 reagent was added to each well and incubated for 1 h. Plates were then read on a multiplate reader at 450 nm with background reference of 650 nm.

[10] = stability of the cyclodextrin inclusion complex by HPLC and NMR; format: physicochemical; details: PsA inclusion complex in HPβCD; observed by HPLC and NMR
Experimental: Hydroxypropyl-beta-cyclodextrin (HPβCD) was added to DI-water at a concentration of 20% w/v. The mixture was then vortexed and sonicated briefly to yield a colorless, transparent, slightly viscous liquid. Separately, a given quantity of pseudopterosin A (PsA) was then solubilized in 100% methanol to yield a yellow, transparent liquid. An aliquot of this solution was then added to a culture tube and dried under inert atmosphere yielding an off-white solid. The previously prepared hydroxypropyl-beta-cyclodextrin solution was then added and vortexed for 10 min. The mixture was orbitally shaken at 4 °C for at least 7 days prior to use to ensure equilibration of the cyclodextrin drug complex. […] Stability was conserved at least 14 days, as observed by HPLC and NMR.

[11] = test system: human adenosine A2A receptor; parameters: method as in doi:10.1016/j.tet.2009.09.021; details: DMSO formulation; high amount of non-specific binding; ref [4]; cited from earlier work
[12] = test system: HUVEC cells; parameters: method as in PMID 2875457, PMID 3574294, PMID 21556163; details: all formulation systems tested; ref [1],[22],[23]; cited from earlier work
[13] = test system: HUVEC cells; assay: HUVEC cytotoxicity elicited by drug formulations (LDH release); details: vehicle alone: 0.02% DMSO, 0.016% Cremophor EL, 0.05% HPβCD; 42 h, growth factor depleted media, 37 °C; n = 4
Experimental: HUVEC LDH release with (A) 0.02% DMSO (B) 0.016% Cremophor EL and (C) 0.05% HPβCD after 42 h in growth factor depleted media at 37 °C. Data are presented as mean ± SEM (n = 4).
Dimethylsulfoxide (DMSO) is the most widely utilized solvent, and is used extensively in biological assays for attaining aqueous solubility for non-polar drug molecules. To determine the potential cytotoxic effects associated with DMSO, Cremophor EL, and HPβCD in a HUVEC system, we report three conditions that were chosen after considering the minimum required vehicle concentration for PsA (drug) solubility.
All cell culture experiments were performed using HUVEC cells initially seeded at 3 × 10^5 cells/75 cm^2 flask and fed every 1–2 days with fresh EGM-2 complete culture media (EBM-2 basal media with hVEGF, hFGF, hIGF, hEGF, hydrocortisone, ascorbic acid, heparin, 2% FBS, and GA-1000). For each experiment cells were split at 80% confluence. All experiments were conducted between generations 4 and 10. Starvation media consisted of EBM-2 basal media with 0.1% FBS, and GA-1000 (antibiotic mixture). Growth factor depleted media consisted of EBM-2 basal media with 2% FBS, hydrocortisone, ascorbic acid, heparin, and GA-1000.

[14] = test system: wound healing; parameters: method as in PMID 20363514; details: topical; ref [5]; cited from earlier work
[15] = test system: early wound repair; parameters: method as in ref [7] = [7]; 7. Vimrx Pharmaceuticals New Drug Application VM 301 for Use in Phase I/IIA Clinical Trials IND 60,606 12 7 2000; details: Phase II, double blind; ref [7]; cited from earlier work

CC(C)=CC1CC(C)C2CCC(C)C3=C2C1=C(C)C(=O)C31OC2OC(C)C(O)C(O)C2O1 (stereo not shown) [Analog 1, pseudopterosin keto ketal]
chromatographic logP [1]: 3.95 ± 0.02 | log(1/SA) (anti-inflammatory specific activity) [2]: 7.63 ± 0.06 mg/mol

CC(C)=C[C@H]1C[C@H](C)[C@H]2CC[C@H](C)c3c(O[C@@H]4OC[C@@H](O)[C@H](O)[C@H]4O)c(O)c(C)c1c32 [Analog 4, Pseudopterosin A]
effect on calcium ionophore induced degranulation and infiltration [3]: inhibited | chromatographic logP [1]: 4.42 ± 0.06 | binding affinity [4]: micromolar | binding affinity [5]: micromolar | solubility in an aqueous medium [6]: low solubility | binding affinity [7]: micromolar | rate of HUVEC cell migration [8]: 9.98 ± 1.2 µm h^−1 | increase in proliferation ([9]; 1.0 × 10^−7 M PsA in HPβCD): 25% | increase in potency of HPβCD formulation over DMSO formulation ([9]; HUVEC proliferation): 200 fold | increased HUVEC proliferation ([9]; PsA in 0.016% Cremophor EL, 42 h): 15% | increase in proliferation ([9]; PsA in 0.02% DMSO, 42 h, compared to DMSO alone): 30% ± 4.8% | Kd ([9]; PsA in 0.05% HPβCD, from analysis of proliferation dose response): 14.5 nM | concentration at which cytotoxicity occurred ([9]; all formulations/vehicles tested in HUVEC cells): ≥ 15 µM | stability conserved [10]: at least 14 days | binding affinity [11]: micromolar | cytotoxic concentration [12]: > 10 µM | log(1/SA) (anti-inflammatory specific activity) [2]: 8.08 ± 0.01 mg/mol

CC(C)=C[C@H]1C[C@H](C)[C@H]2CC[C@H](C)c3c(O[C@@H]4O[C@@H](C)[C@@H](O)[C@@H](O)[C@@H]4O)c(O)c(C)c1c32 [Analog 5, iso-PsE]
chromatographic logP [1]: 4.59 ± 0.05 | log(1/SA) (anti-inflammatory specific activity) [2]: 8.02 ± 0.02 mg/mol

C[S+](C)[O-] [DMSO, Dimethylsulfoxide]
LDH release (cytotoxicity) [13]: 18.4% ± 1.6%

COc1c(C)c2c3c(c1O[C@@H]1OC[C@@H](O)[C@H](O)[C@H]1O)[C@@H](C)CC[C@@H]3[C@@H](C)C[C@@H]2C=C(C)C [Analog 3, PsA methyl ether]
efficacy in wound healing [14]: topical efficacy | chromatographic logP [1]: 4.37 ± 0.02 | effect on early wound repair above vehicle alone [15]: increased angiogenesis, granulation, and re-epithelialization

From article PMC3806459, “Cyclodextrin Formulation of the Marine Natural Product Pseudopterosin A Uncovers Optimal Pharmacodynamics in Proliferation Studies of Human Umbilical Vein Endothelial Cells” (Marine Drugs, 2013)
